{
  "source": "patent US6359152B2",
  "about": "“18-substituted-19-nor-vitamin D compounds” (Wisconsin Alumni Research Foundation, priority 1997, dated 2002)",
  "key": {"HL-60 cells": {"test_system": "HL-60 cells", "conditions": "compared to 1,25-(OH)2D3; FIG. 2", "protocol": "The differentiation of HL-60 promyelocytic into monocytes was determined as described by Ostrem et al (J. Biol. Chem. 262, 14164-14171, 1987)."}, "[1]": {"test_system": "Intestinal Calcium Transport", "test": "Intestinal calcium transport (everted sac) in vitamin D-deficient rats after chronic dosing", "type": "in vivo", "conditions": "for Intestinal Calcium Transport (S/M): intraperitoneal, vitamin D-deficient low calcium diet rats, mean ± SEM, 24 h after last dose; for intestinal calcium transport activity (in words): versus control, given for 7 days in a chronic mode", "protocol": "(§1) Male weanling rats were obtained from Sprague Dawley Co. (Indianapolis, Ind.) and fed a 0.47% calcium, 0.3% phosphorus vitamin D-deficient diet for 1 week and then given the same diet containing 0.02% calcium, 0.3% phosphorus for 3 weeks. During the last week they were given the indicated dose of compound by intraperitoneal injection in 0.1 ml 95% propylene glycol and 5% ethanol each day for 7 days. The control animals received only the 0.1 ml of 95% propylene glycol, 5% ethanol. Twenty-four hours after the last dose, the rats were sacrificed and intestinal calcium transport was determined by everted sac technique as previously described and serum calcium determined by atomic absorption spectrometry on a model 3110 Perkin Elmer instrument (Norwalk, Conn.). There were 5 rats per group and the values represent mean ±SEM."}, "[2]": {"test_system": "Serum Calcium (Bone Calcium Mobilization)", "test": "Serum calcium (bone calcium mobilization) in vitamin D-deficient rats after chronic dosing", "type": "in vivo", "conditions": "for Serum Calcium (mg/100 ml): intraperitoneal, vitamin D-deficient low calcium diet rats, mean ± SEM, 24 h after last dose; for bone calcium mobilizing activity (in words): versus control, given for 7 days in a chronic mode", "protocol": "as §1"}, "[3]": {"molecular_target": "T1, porcine intestinal vitamin D receptor (Sus scrofa, UniProt A3RGC1)", "T1 sequence (A3RGC1 1-427)": "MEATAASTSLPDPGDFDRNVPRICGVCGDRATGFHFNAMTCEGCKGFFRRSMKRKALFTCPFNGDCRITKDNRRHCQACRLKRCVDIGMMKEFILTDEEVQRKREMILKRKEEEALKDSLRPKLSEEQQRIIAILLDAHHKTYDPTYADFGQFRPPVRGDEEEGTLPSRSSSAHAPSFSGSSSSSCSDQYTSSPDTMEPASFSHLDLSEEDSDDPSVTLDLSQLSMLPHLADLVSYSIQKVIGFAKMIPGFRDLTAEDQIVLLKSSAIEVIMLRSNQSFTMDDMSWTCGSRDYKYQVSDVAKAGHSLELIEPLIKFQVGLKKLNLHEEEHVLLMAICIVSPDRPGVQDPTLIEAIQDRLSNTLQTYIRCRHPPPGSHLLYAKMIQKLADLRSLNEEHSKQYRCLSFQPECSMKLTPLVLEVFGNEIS", "test": "Competitive binding of [3H]-1,25-(OH)2-D3 to the porcine intestinal vitamin D receptor", "conditions": "at low concentrations; FIG. 1", "procedure": "Competitve binding of the analogs to the porcine intestinal receptor was carried out by the method described by Dame et al (Biochemistry 25, 4523-4534, 1986)."}},
  "data": [
    {"compound": "C=CC12CCC/C(=C\\C=C3C[C@@H](O)C[C@H](O)C3)[C@@H]1CC[C@@H]2[C@H](C)CCCC(C)(C)O", "note": "(stereo partly drawn) [13-Vinyl-18,19-Dinor-1,25-(OH)2D3, 1α,25-dihydroxy-13-vinyl-18,19-dinor-vitamin D3]", "values": [
      {"measurement": "activity in inducing differentiation of HL-60 cells to the monocyte", "setting": "HL-60 cells", "value": "activity similar to 1,25-(OH)2D3"},
      {"measurement": "Intestinal Calcium Transport (S/M)", "setting": "[1]; 260 pmol/day for 7 days", "value": "4.02 ± 0.24", "unit": "S/M"},
      {"measurement": "Intestinal Calcium Transport (S/M)", "setting": "[1]; 500 pmol/day for 7 days", "value": "4.25 ± 0.55", "unit": "S/M"},
      {"measurement": "intestinal calcium transport activity (in words)", "setting": "[1]", "value": "no significant change versus control"},
      {"measurement": "Serum Calcium (mg/100 ml)", "setting": "[2]; 260 pmol/day for 7 days", "value": "3.32 ± 0.21", "unit": "mg/100 ml"},
      {"measurement": "Serum Calcium (mg/100 ml)", "setting": "[2]; 500 pmol/day for 7 days", "value": "3.52 ± 0.12", "unit": "mg/100 ml"},
      {"measurement": "bone calcium mobilizing activity (in words)", "setting": "[2]", "value": "no significant change versus control"},
      {"measurement": "binding activity compared to 1,25-(OH)2D3", "setting": "[3]", "value": "approximately twice"}
    ]},
    {"compound": "CC[C@]12CCC/C(=C\\C=C3C[C@@H](O)C[C@H](O)C3)[C@@H]1CC[C@@H]2[C@H](C)CCCC(C)(C)O", "note": "[13-Ethyl-18,19-Dinor-1,25-(OH)2D3, 1α,25-dihydroxy-13-ethyl-18,19-dinor-vitamin D3]", "values": [
      {"measurement": "activity in inducing differentiation of HL-60 cells to the monocyte", "setting": "HL-60 cells", "value": "activity similar to 1,25-(OH)2D3"},
      {"measurement": "Intestinal Calcium Transport (S/M)", "setting": "[1]; 260 pmol/day for 7 days", "value": "4.30 ± 0.20", "unit": "S/M"},
      {"measurement": "Intestinal Calcium Transport (S/M)", "setting": "[1]; 500 pmol/day for 7 days", "value": "4.40 ± 0.27", "unit": "S/M"},
      {"measurement": "intestinal calcium transport activity (in words)", "setting": "[1]", "value": "no significant change versus control"},
      {"measurement": "Serum Calcium (mg/100 ml)", "setting": "[2]; 260 pmol/day for 7 days", "value": "4.39 ± 0.53", "unit": "mg/100 ml"},
      {"measurement": "Serum Calcium (mg/100 ml)", "setting": "[2]; 500 pmol/day for 7 days", "value": "3.99 ± 0.33", "unit": "mg/100 ml"},
      {"measurement": "bone calcium mobilizing activity (in words)", "setting": "[2]", "value": "no significant change versus control"},
      {"measurement": "binding activity compared to 1,25-(OH)2D3", "setting": "[3]", "value": "approximately twice"}
    ]},
    {"compound": "C[C@H](CCCC(C)(C)O)[C@H]1CC[C@H]2/C(=C/C=C3C[C@@H](O)C[C@H](O)C3)CCC[C@]12C", "note": "[19-Nor-1,25-(OH)2D3, 1α,25-dihydroxy-19nor-vitamin D3, reference compound]", "values": [
      {"measurement": "Intestinal Calcium Transport (S/M)", "setting": "[1]; 260 pmol/day for 7 days", "value": "4.02 ± 0.50", "unit": "S/M"},
      {"measurement": "Serum Calcium (mg/100 ml)", "setting": "[2]; 260 pmol/day for 7 days", "value": "3.83 ± 0.20", "unit": "mg/100 ml"}
    ]}
  ]
}
